US8653096B2, “Chemokine receptor antagonists and methods of use thereof” (Millennium Pharmaceuticals, Inc., priority 2001, dated 2014)

Molecular target: T1, RANTES/MIP-1α chemokine receptor (CCR1) in THP-1 cell membranes (Homo sapiens, UniProt P32246)
T1 construct: Membranes were prepared from THP-1 cells (ATCC #TIB202); host or cells: THP-1 cells (membrane preparation)
T1 sequence (P32246 1-355): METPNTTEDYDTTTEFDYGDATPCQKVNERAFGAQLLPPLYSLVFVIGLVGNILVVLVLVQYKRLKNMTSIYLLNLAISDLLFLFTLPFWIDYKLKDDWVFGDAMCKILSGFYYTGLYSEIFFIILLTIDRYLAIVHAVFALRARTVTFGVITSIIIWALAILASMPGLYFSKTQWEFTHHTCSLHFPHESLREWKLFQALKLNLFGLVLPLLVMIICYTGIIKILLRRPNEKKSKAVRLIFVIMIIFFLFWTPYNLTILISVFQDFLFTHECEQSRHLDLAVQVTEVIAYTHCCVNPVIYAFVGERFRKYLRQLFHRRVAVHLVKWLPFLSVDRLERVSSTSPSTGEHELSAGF
Assay: Receptor binding assay: 125I-RANTES or 125I-MIP-1α binding to THP-1 cell membranes
Conditions: inhibitor concentration required for 50% inhibition of specific binding; 125I-RANTES or 125I-MIP-1α as ligand, THP-1 cell membranes; read-out: IC50

Compound | IC50 [µM]
4-(3,5-dichlorophenyl)-1-[3-(5,11-dihydro-7-methoxy[1]benzoxepino[2,3-b]pyridin-5-ylidene)propyl]piperidin-4-ol [Example 146] | > 10
4-(3,4-difluorophenyl)-1-[3-(5,11-dihydro-7-methoxy[1]benzoxepino[2,3-b]pyridin-5-ylidene)propyl]piperidin-4-ol [Example 144] | < 1
COC(=O)CCN(Cc1ccc(Cl)cc1)C1CCN(CCC=C2c3cc(C(C)(C)O)ccc3OCc3ncccc32)C1 (stereo not drawn) [Example 555, 3-[(4-Chloro-benzyl)-(1-{3-[7-(1-hydroxy-1-methyl-ethyl)-11H-10-oxa-1-aza-dibenzo[a,d]cyclohepten-5-ylidene]-propyl}-pyrrolidin-3-yl)-amino]-propionic acid methyl ester] | < 1
CC1(C)CN(CCC=C2c3cc(O)ccc3OCc3ncccc32)CCC1(O)c1ccc(Cl)cc1 (stereo not drawn) [Example 509, 5-{3-[4-(4-Chloro-phenyl)-4-hydroxy-3,3-dimethyl-piperidin-1-yl]-propylidene}-5,11-dihydro-10-oxa-1-aza-dibenzo[a,d]cyclohepten-7-ol] | < 1
CC(=O)c1ccc2c(c1)C(=CCCN1CC[C@](O)(c3ccc(Cl)cc3)C(C)(C)C1)c1cccnc1CO2 [Example 504, S-1-(5-{3-[4-(4-Chloro-phenyl)-4-hydroxy-3,3-dimethyl-piperidin-1-yl]-propylidene}-5,11-dihydro-10-oxa-1-aza-dibenzo[a,d]cyclohepten-7-yl)-ethanone] | < 1
CC(C)(O)c1ccc2c(c1)C(=CCCN1CCC(O)(c3ccc(Cl)cc3)C(C)(CO)C1)c1cccnc1CO2 (stereo not drawn) [Example 482, 4-(4-Chloro-phenyl)-3-hydroxymethyl-1-{3-[7-(hydroxyl-1-methyl-ethyl)-11H-10-oxa-1-aza-dibenzo[a, d]cyclohepten-5-ylidene]-propyl}-3-methyl-piperidine-4-ol] | < 1
4-Benzyl-1-[3-(5,11-dihydro-7-methoxy[1]benzoxepino[2,3-b]pyridin-5-ylidene)propyl]piperidin-4-ol [Example 62] | < 10
4-(4-Chlorophenyl)-1-[3-(5,11-dihydro-8-methoxy[1]benzoxepino[2,3-b]pyridin-5-ylidene)propyl]piperidin-4-ol [Example 114] | < 1
4-(4-Chlorophenyl)-1-[3-(5,11-dihydro-7-methoxy[1]benzoxepino[2,3-b]pyridin-5-ylidene)propyl]piperidine [Example 65] | < 1
CCN(Cc1ccc(Cl)cc1)[C@@H]1CCN(CCC=C2c3cc(C(C)(C)O)ccc3OCc3ncccc32)C1 [Example 524, (R)-2-[5-(3-{3-[(4-Chloro-benzyl)-ethyl-amino]-pyrrolidin-1-yl}-propylidene)-5,11-dihydro-10-oxa-1-aza-dibenzo[a,d]cyclohepten-7-yl]-propan-2-ol] | < 1
4-(4-Chlorophenyl)-1-[3-(5,11-dihydro-7-(1-ethoxycarbonyl-1-methylethyl)oxy[1]benzoxepino[2,3-b]pyridin-5-ylidene)propyl]piperidine [Example 158] | < 1
4-(4-Chlorophenyl)-1-[3-(5,11-dihydro-7-(1-cyclohexyloxycarbonyloxy)ethyloxycarbonyl[1]benzoxepino[2,3-b]pyridin-5-ylidene)propyl]piperidin-4-ol dihydrochloride [Example 306] | < 1
CCN(C(=O)C1CCN(CCC=C2c3cc(C(C)(C)O)ccc3OCc3ncccc32)C1)c1ccc(Cl)cc1 (stereo not drawn) [Example 531, 1-{3-[7-(1-Hydroxy-1-methyl-ethyl)-11H-10-oxa-1-aza-dibenzo[a,d]cyclohepten-5-ylidene]-propyl}-pyrrolidine-3-carboxylic acid (4-chloro-phenyl)-ethyl-amide] | < 1
CC(=O)c1ccc2c(c1)C(=CCCN1CC[C@@](O)(c3ccc(Cl)cc3)C(C)(C)C1)c1cccnc1CO2 [Example 505, R-1-(5-{3-[4-(4-Chloro-phenyl)-4-hydroxy-3,3-dimethyl-piperidin-1-yl]-propylidene}-5,11-dihydro-10-oxa-1-aza-dibenzo[a,d]cyclohepten-7-yl)-ethanone] | < 1
CC(C)(Oc1ccc2c(c1)C(=CCCN1CCC(O)(c3ccc(Cl)cc3)C(C)(C)C1)c1cccnc1CO2)C(=O)O (stereo not drawn) [Example 512, 2-(5-{3-[4-(4-Chloro-phenyl)-4-hydroxy-3,3-dimethyl-piperidin-1-yl]-propylidene}-5,11-dihydro-10-oxa-1-aza-dibenzo[a,d]cyclohepten-7-yloxy)-2-methyl-propionic acid] | < 1
4-(4-Chlorophenyl)-1-[3-(7-(2-ethoxycarboxy)ethyl-5,11-dihydro[1]benzoxepino[2,3-b]pyridin-5-ylidene)propyl]piperidin-4-ol [Example 288] | < 1
CC(C)(O)c1ccc2c(c1)C(=CCCN1CC[C@](O)(c3ccc(Cl)cc3)[C@H](C#N)C1)c1cccnc1CO2 (relative stereo) [Example 479, Trans-4-(4-Chloro-phenyl)-4-hydroxy-1-{3-[7-(1-hydroxyl-1-methyl-ethyl)-11H-10-oxa-1-aza-dibenzo[a,d]cyclohepten-5-ylidene]-propyl}-piperidin-3-carbonitrile] | < 1
CC(C)(O)c1ccc2c(c1)C(=CCCN1CC[C@@](O)(c3ccc(Cl)cc3)C(C)(C)C1)c1cccnc1CO2 [Example 503, R-4-(4-Chloro-phenyl)-1-{3-[7-(1-hydroxy-1-methyl-ethyl)-11H-10-oxa-1-aza-dibenzo[a,d]cyclohepten-5-ylidene]-propyl}-3,3-dimethyl-piperidin-4-ol] | < 1
CC(C)(O)c1ccc2c(c1)C(=CCCN1CCC(C(N)=O)(c3ccc(Cl)cc3)CC1)c1cccnc1CO2 [Example 460, 4-(4-Chloro-phenyl)-1-{3-[7-(1-hydroxy-1-methyl-ethyl)-11H-10-oxa-1-aza-dibenzo[a,d]cyclohepten-5-ylidene]-propyl}-piperidine-4-carboxylic acid amide] | < 1
CN(C)C(=O)c1ccc2c(c1)C(=CCCN1CCC(O)(c3ccc(Cl)cc3)CC1)c1ccccc1CO2 [Example 25, 4-(4-Chlorophenyl)-1-[3-(6,11-dihydro-2-dimethylaminocarbonyldibenz[b,e]oxepin-11-ylidene)propyl]piperidin-4-ol] | < 1
4-(3-Chlorophenyl)-1-[3-(5,11-dihydro-7-methoxy[1]benzoxepino[2,3-b]pyridin-5-ylidene)propyl]piperidin-4-ol [Example 75] | < 10
CC(C)(O)c1ccc2c(c1)C(=CCCN1CCC(O)(c3ccccc3Cl)CC1)c1cccnc1CO2 [Example 489, 4-(2-Chloro-phenyl)-1-{3-[7-(1-hydroxy-1-methyl-ethyl)-11H-10-oxa-1-azadibenzo[a,d]cyclohepten-5-ylidene]-propyl}-piperidin-4-ol] | < 10
CCOC(=O)CN1C(=O)c2ccccc2C(=CCCN2CCC(O)(c3ccc(Cl)cc3)CC2)c2ccccc21 [Example 18, 4-(4-Chlorophenyl)-1-[3-(6,11-dihydro-5-ethoxycarbonymethyl-6-oxo-5H-dibenz[b,e]azepin-11-ylidene)propyl]piperidin-4-ol] | < 1
CC(C)(O)COc1ccc2c(c1)C(=CCCN1CCC(O)(c3ccc(Cl)cc3)C(C)(C)C1)c1cccnc1CO2 (stereo not drawn) [Example 517, 4-(4-Chloro-phenyl)-1-{3-[7-(2-hydroxy-2-methyl-propoxy)-11H-10-oxa-1-aza-dibenzo[a,d]cyclohepten-5-ylidene]-propyl}-3,3-dimethyl-piperidin-4-ol] | < 1
CC(C)(O)c1ccc2c(c1)C(=CCCN1CCC(O)(c3ccc(Cl)cc3)C(C)(C)C1)c1ccc[n+]([O-])c1CO2 (stereo not drawn) [Example 523, 4-(4-Chloro-phenyl)-1-{3-[7-(1-hydroxy-1-methyl-ethyl)-1-oxy-11H-10-oxa-1-aza-dibenzo[a,d]cyclohepten-5-ylidene]-propyl}-3,3-dimethyl-piperidin-4-ol] | < 1
4-(4-Chlorophenyl)-1-[3-(5,11-dihydro-7-(2-propoxy)carbonyl-[1]benzoxepino[2,3-b]pyridin-5-ylidene) propyl]piperidine-4-ol [Example 428] | < 1
COc1ccc2c(c1)C(=CCCN1CCC(O)(c3ccc(Cl)cc3)CC1)c1ccccc1CO2 [Example 33, 4-(4-Chlorophenyl)-1-[3-(6,11-dihydro-2-methoxydibenz[b,e]oxepin-11-ylidene)propyl]piperidin-4-ol] | < 1
CC(C)(O)COc1ccc2c(c1)C(=CCCN1CCC(O)(c3ccc(Cl)cc3)CC1)c1cccnc1CO2 [Example 200, 4-(4-Chlorophenyl)-1-[3-(7-(1-(2-methyl-2-hydroxy)propyl)oxy-5,11-dihydro[1]benzoxepino[2,3-b]pyridin-5-ylidene)propyl]piperidin-4-ol] | < 1
CCN(Cc1ccc(Cl)cc1)C1CCN(CCC=C2c3cc(C(C)(C)O)ccc3OCc3ncccc32)CC1 [Example 487, 2-[5-(3-{4-[(4-Chloro-benzyl)ethyl-amino]-piperidin-1-yl}-propylidene)-5,11-dihydro-10-oxa-1-aza-dibenzo[a,d]cyclohepten-7-yl]-propan-2-ol] | < 1
CC(C)(O)c1ccc2c(c1)C(=CCCN1CCC(N(CC(=O)O)Cc3ccc(Cl)cc3)C1)c1cccnc1CO2 (stereo not drawn) [Example 537, [(4-Chloro-benzyl)-(1-{3-[7-(1-hydroxy-1-methyl-ethyl)-11H-10-oxa-1-aza-dibenzo[a,d]cyclohepten-5-ylidene]-propyl}-pyrrolidin-3-yl)-amino]-acetic acid] | < 1
